Laboratory results reported in ChEMBL document CHEMBL4308841, “Synthesis, in vitro antiproliferative activity, and kinase inhibitory effects of pyrazole-containing diarylureas and diarylamides” (Eur J Med Chem, 2018).

Assays:
CCRF-CEM [1] = assay: Growth inhibition of human CCRF-CEM cells assessed as cell growth at 1 uM incubated for 48 hrs by sulforhodamine B assay relative to control; format: functional; settings: read-out: Activity
HT-29 = assay: Growth inhibition of human HT-29 cells assessed as cell growth at 0.01 uM incubated for 48 hrs by sulforhodamine B assay relative to control; format: functional; settings: HT-29, 48 h, read-out: Activity
SK-MEL-5 = assay: Growth inhibition of human SK-MEL-5 cells assessed as cell growth at 0.1 uM incubated for 48 hrs by sulforhodamine B assay relative to control; format: functional; settings: SK-MEL-5, 48 h, read-out: Activity
NCI-H23 = assay: Growth inhibition of human NCI-H23 cells assessed as cell growth at 1 uM incubated for 48 hrs by sulforhodamine B assay relative to control; format: functional; settings: NCI-H23, 48 h, read-out: Activity
Malme-3M = assay: Growth inhibition of human MALME-3M cells assessed as cell growth at 1 uM incubated for 48 hrs by sulforhodamine B assay relative to control; format: functional; settings: read-out: Activity
SW-620 [2] = assay: Growth inhibition of human SW620 cells assessed as cell growth at 0.1 uM incubated for 48 hrs by sulforhodamine B assay relative to control; format: functional; settings: SW-620, 48 h, read-out: Activity
DU-145 [3] = assay: Growth inhibition of human DU145 cells assessed as cell growth at 0.1 uM incubated for 48 hrs by sulforhodamine B assay relative to control; format: functional; settings: DU-145, 48 h, read-out: Activity
HL-60(TB) = assay: Growth inhibition of human HL-60(TB) cells assessed as cell growth at 0.1 uM incubated for 48 hrs by sulforhodamine B assay relative to control; format: functional; settings: HL-60, 48 h, read-out: Activity
M14 = assay: Growth inhibition of human M14 cells assessed as cell growth at 1 uM incubated for 48 hrs by sulforhodamine B assay relative to control; format: functional; settings: M14, 48 h, read-out: Activity
NCI/ADR-RES = assay: Growth inhibition of human NCI/ADR-RES cells assessed as cell growth at 0.01 uM incubated for 48 hrs by sulforhodamine B assay relative to control; format: functional; settings: read-out: Activity
HCT-15 = assay: Growth inhibition of human HCT15 cells assessed as cell growth at 0.01 uM incubated for 48 hrs by sulforhodamine B assay relative to control; format: functional; settings: HCT-15, 48 h, read-out: Activity
HOP-62 [4] = assay: Growth inhibition of human HOP62 cells assessed as cell growth at 0.1 uM incubated for 48 hrs by sulforhodamine B assay relative to control; format: functional; settings: HOP-62, 48 h, read-out: Activity
NCI-H522 [5] = assay: Growth inhibition of human NCI-H522 cells assessed as cell growth at 100 uM incubated for 48 hrs by sulforhodamine B assay relative to control; format: functional; settings: NCI-H522, 48 h, read-out: Activity
OVCAR-5 [6] = assay: Growth inhibition of human OVCAR5 cells assessed as cell growth at 0.1 uM incubated for 48 hrs by sulforhodamine B assay relative to control; format: functional; settings: OVCAR-5, 48 h, read-out: Activity
OVCAR-4 = assay: Growth inhibition of human OVCAR4 cells incubated for 48 hrs by sulforhodamine B assay; format: functional, cell-based; settings: OVCAR-4, 48 h
SK-OV-3 = assay: Growth inhibition of human SKOV3 cells incubated for 48 hrs by sulforhodamine B assay; format: functional, cell-based; settings: SK-OV-3, 48 h
TK-10 = assay: Growth inhibition of human TK10 cells assessed as cell growth at 10 uM incubated for 48 hrs by sulforhodamine B assay relative to control; format: functional; settings: TK-10, 48 h, read-out: Activity
SF-268 = assay: Growth inhibition of human SF268 cells assessed as cell growth at 0.1 uM incubated for 48 hrs by sulforhodamine B assay relative to control; format: functional; settings: SF-268, 48 h, read-out: Activity
SW-620 [7] = assay: Growth inhibition of human SW620 cells assessed as cell growth at 1 uM incubated for 48 hrs by sulforhodamine B assay relative to control; format: functional; settings: SW-620, 48 h, read-out: Activity
SK-MEL-2 = assay: Growth inhibition of human SK-MEL-2 cells assessed as cell growth at 100 uM incubated for 48 hrs by sulforhodamine B assay relative to control; format: functional; settings: SK-MEL-2, 48 h, read-out: Activity
DU-145 [8] = assay: Growth inhibition of human DU145 cells assessed as cell growth at 100 uM incubated for 48 hrs by sulforhodamine B assay relative to control; format: functional; settings: DU-145, 48 h, read-out: Activity
HCC 2998 = assay: Growth inhibition of human HCC2998 cells assessed as cell growth at 0.01 uM incubated for 48 hrs by sulforhodamine B assay relative to control; format: functional; settings: HCC 2998, 48 h, read-out: Activity
SW-620 [9] = assay: Growth inhibition of human SW620 cells incubated for 48 hrs by sulforhodamine B assay; format: functional, cell-based; settings: SW-620, 48 h
CCRF-CEM [10] = assay: Growth inhibition of human CCRF-CEM cells assessed as cell growth at 0.1 uM incubated for 48 hrs by sulforhodamine B assay relative to control; format: functional; settings: read-out: Activity
RXF 393 = assay: Growth inhibition of human RXF393 cells assessed as cell growth at 100 uM incubated for 48 hrs by sulforhodamine B assay relative to control; format: functional; settings: RXF 393, 48 h, read-out: Activity
KM12 = assay: Growth inhibition of human KM12 cells assessed as cell growth at 0.01 uM incubated for 48 hrs by sulforhodamine B assay relative to control; format: functional; settings: KM12, 48 h, read-out: Activity
LOX IMVI = assay: Growth inhibition of human LOXIMVI cells assessed as cell growth at 100 uM incubated for 48 hrs by sulforhodamine B assay relative to control; format: functional; settings: read-out: Activity
NCI-H522 [11] = assay: Growth inhibition of human NCI-H522 cells assessed as cell growth at 0.01 uM incubated for 48 hrs by sulforhodamine B assay relative to control; format: functional; settings: NCI-H522, 48 h, read-out: Activity
OVCAR-5 [12] = assay: Growth inhibition of human OVCAR5 cells assessed as cell growth at 1 uM incubated for 48 hrs by sulforhodamine B assay relative to control; format: functional; settings: OVCAR-5, 48 h, read-out: Activity
SF-539 = assay: Growth inhibition of human SF539 cells assessed as cell growth at 1 uM incubated for 48 hrs by sulforhodamine B assay relative to control; format: functional; settings: SF-539, 48 h, read-out: Activity
OVCAR-8 = assay: Growth inhibition of human OVCAR8 cells assessed as cell growth at 1 uM incubated for 48 hrs by sulforhodamine B assay relative to control; format: functional; settings: OVCAR-8, 48 h, read-out: Activity
HOP-62 [13] = assay: Growth inhibition of human HOP62 cells assessed as cell growth at 100 uM incubated for 48 hrs by sulforhodamine B assay relative to control; format: functional; settings: HOP-62, 48 h, read-out: Activity
[14] = read-out: LC50 (the source's name)
[15] = read-out: pLC50 (the source's name) (converted)

With `COc1cc(Cl)cc(-c2nn(-c3cccc(NC(=O)c4cccc(C(F)(F)F)c4)c3)cc2-c2ccncc2)c1` the growth at 1 µM (CCRF-CEM [1]) was 53%, the growth at 0.01 µM (HT-29) was 90% and the growth at 0.1 µM (SK-MEL-5) was 95%. The growth at 1 µM (NCI-H23) was 94%, the growth at 1 µM (Malme-3M) was 82% and the growth at 0.1 µM (SW-620 [2]) was 99%. The growth at 0.1 µM (DU-145 [3]) was 107%, the growth at 0.1 µM (HL-60(TB)) was 90% and the growth at 1 µM (M14) was 83%. The growth at 0.01 µM (NCI/ADR-RES) was 103%, the growth at 0.01 µM (HCT-15) was 56% and the growth at 0.1 µM (HOP-62 [4]) was 101%. It also gave a growth at 100 µM (NCI-H522 [5]) of 18%, a growth at 0.1 µM (OVCAR-5 [6]) of 94% and a GI50 (OVCAR-4; read-out: GI50) greater than 100000 nM. For the same compound, the CC50 (OVCAR-4; [14]) was greater than 100 µM, the TGI (OVCAR-4; read-out: TGI) was greater than 100 µM and the GI50 (OVCAR-4; read-out: pGI50 (converted)) was greater than 100000 nM. For the same compound, the CC50 (OVCAR-4; [15]) was greater than 100 µM, the TGI (OVCAR-4; read-out: pTGI (converted)) was greater than 100 µM and the GI50 (SK-OV-3; read-out: GI50) was greater than 100 µM. For the same compound, the CC50 (SK-OV-3; [14]) was greater than 100 µM, the TGI (SK-OV-3; read-out: TGI) was greater than 100 µM and the GI50 (SK-OV-3; read-out: pGI50 (converted)) was greater than 100 µM. The CC50 (SK-OV-3; [15]) was greater than 100 µM, the TGI (SK-OV-3; read-out: pTGI (converted)) was greater than 100 µM and the growth at 10 µM (TK-10) was 72.7%. The growth at 0.1 µM (SF-268) was 100%, the growth at 1 µM (SW-620 [7]) was 107% and the growth at 100 µM (SK-MEL-2) was 47%. It also gave a growth at 100 µM (DU-145 [8]) of 50%, a growth at 0.01 µM (HCC 2998) of 108% and a GI50 (SW-620 [9]; read-out: GI50) greater than 100000 nM. It also gave an LC50 (SW-620 [9]; read-out: LC50) greater than 100 µM, a TGI (SW-620 [9]; read-out: TGI) greater than 100 µM and a GI50 (SW-620 [9]; read-out: pGI50 (converted)) greater than 100000 nM. It also gave an LC50 (SW-620 [9]; read-out: pLC50 (converted)) greater than 100 µM, a TGI (SW-620 [9]; read-out: pTGI (converted)) greater than 100 µM and a growth at 0.1 µM (CCRF-CEM [10]) of 92%. For the same compound, the growth at 100 µM (RXF 393) was 19%, the growth at 0.01 µM (KM12) was 110% and the growth at 100 µM (LOX IMVI) was 41%. It also gave a growth at 0.01 µM (NCI-H522 [11]) of 51%, a growth at 1 µM (OVCAR-5 [12]) of 96% and a growth at 1 µM (SF-539) of 52%. For the same compound, the growth at 1 µM (OVCAR-8) was 93% and the growth at 100 µM (HOP-62 [13]) was 83%.
With `COc1cc(Cl)cc(-c2nn(-c3cccc(NC(=O)Nc4cccc(C(F)(F)F)c4)c3)cc2-c2ccncc2)c1` the growth at 1 µM (CCRF-CEM [1]) was 56%, the growth at 0.01 µM (HT-29) was 102% and the growth at 0.1 µM (SK-MEL-5) was 98%. The growth at 1 µM (NCI-H23) was 71%, the growth at 1 µM (Malme-3M) was 75% and the growth at 0.1 µM (SW-620 [2]) was 100%. It also gave a growth at 0.1 µM (DU-145 [3]) of 99%, a growth at 0.1 µM (HL-60(TB)) of 98% and a growth at 1 µM (M14) of 64%. The growth at 0.01 µM (NCI/ADR-RES) was 100%, the growth at 0.01 µM (HCT-15) was 92% and the growth at 0.1 µM (HOP-62 [4]) was 97%. For the same compound, the growth at 100 µM (NCI-H522 [5]) was -78%, the growth at 0.1 µM (OVCAR-5 [6]) was 54% and the GI50 (OVCAR-4; read-out: GI50) was 2540 nM. For the same compound, the CC50 (OVCAR-4; [14]) was greater than 100 µM, the TGI (OVCAR-4; read-out: TGI) was 38.8 µM and the GI50 (OVCAR-4; read-out: pGI50 (converted)) was 2510 nM. For the same compound, the CC50 (OVCAR-4; [15]) was greater than 100 µM, the TGI (OVCAR-4; read-out: pTGI (converted)) was 38.9 µM and the GI50 (SK-OV-3; read-out: GI50) was 3.61 µM. It also gave a CC50 (SK-OV-3; [14]) greater than 100 µM, a TGI (SK-OV-3; read-out: TGI) of 55.4 µM and a GI50 (SK-OV-3; read-out: pGI50 (converted)) of 3.63 µM. It also gave a CC50 (SK-OV-3; [15]) greater than 100 µM, a TGI (SK-OV-3; read-out: pTGI (converted)) of 58.9 µM and a growth at 10 µM (TK-10) of 23.4%. The growth at 0.1 µM (SF-268) was 94%, the growth at 1 µM (SW-620 [7]) was 74% and the growth at 100 µM (SK-MEL-2) was -68%. The growth at 100 µM (DU-145 [8]) was 7%, the growth at 0.01 µM (HCC 2998) was 98% and the GI50 (SW-620 [9]; read-out: GI50) was 2300 nM. The LC50 (SW-620 [9]; read-out: LC50) was greater than 100 µM, the TGI (SW-620 [9]; read-out: TGI) was 25.8 µM and the GI50 (SW-620 [9]; read-out: pGI50 (converted)) was 2290 nM. It also gave an LC50 (SW-620 [9]; read-out: pLC50 (converted)) greater than 100 µM, a TGI (SW-620 [9]; read-out: pTGI (converted)) of 26.9 µM and a growth at 0.1 µM (CCRF-CEM [10]) of 97%. For the same compound, the growth at 100 µM (RXF 393) was -80%, the growth at 0.01 µM (KM12) was 97% and the growth at 100 µM (LOX IMVI) was -53%. It also gave a growth at 0.01 µM (NCI-H522 [11]) of 95%, a growth at 1 µM (OVCAR-5 [12]) of 88% and a growth at 1 µM (SF-539) of 84%. It also gave a growth at 1 µM (OVCAR-8) of 54% and a growth at 100 µM (HOP-62 [13]) of -41%.
